# Values joined by “and” are separate entries in the source; they are usually repeats but may differ in a detail not shown here. Identical values can stand only once. Like-named read-outs stand apart in the source and are kept apart here.
# Tests used:
# [1] = target: Pim-1 kinase (Homo sapiens, UniProt P11309); experiment: Promega Kinase-Glo Pim-1 kinase inhibition assay; format: biochemical; conditions: Table VIII (results), read-out: IC50(Kinase);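 note: in vitro Pim-1 reaction run 2 h at 30 °C, then leftover ATP measured by luciferase luminescence, where signal falls as kinase activity rises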
# [2] = test system: K562 Cells; experiment: Cell growth inhibition, Cell-Titer-Glo, 96 hours; format: cell-based; conditions: read-out: IC50 (K562);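 note: luminescent ATP signal as an index of viable cell number, drug-treated versus cells given an equal volume of DMSO vehicle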
# [3] = test system: PC-3 Cells; experiment: Cell growth inhibition, Cell-Titer-Glo, 96 hours; format: cell-based; conditions: Homo sapiens, Table IX (results), read-out: IC50 (PC-3);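 note: luciferase luminescence reflecting cellular ATP, used as a proxy for cell number, with compound-treated cells compared against DMSO vehicle control wells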
# [4] = test system: phospho-Bad (S112) in MV-4-11 cells; experiment: phospho-Bad (S112) Western blot in MV-4-11 cells; format: cell-based; conditions: Homo sapiens, MV4-11, 1 hr treatment, HCl salts, read-out: EC50 on phosphorylation of Bad (S112)
# Text: One illustrative manner to determine the effect of Pim-1 inhibitors on the activity of the Pim-1 kinase is to measure the phosphorylation levels of the protein Bad at serine residue 112 (S112) (phospho-Bad or pBad). Pim-1 is known to cause the phosphorylation of Bad at S112 in order to inactivate the protein and inhibit its association with anti-apoptotic Bcl-2 family members, thereby allowing these Bcl-2 family members to further inhibit apoptotic signals.
# Briefly, MV-4-11 (biphenotypic B myelomonocytic leukemia) cells were plated into T25 flasks in serum free media (SFM) at 1.5×10^5 cells/ml and allowed to grow for 24 hrs. After 24 hrs Pim-1 inhibitors at 10, 5, 1, 0.5, 0.1, or 0.01 μM concentrations were added to individual flasks. Treatment with the Pim-1 inhibitors continued for a duration of 1 hr. Cells were harvested after the 1 hr treatment and cell lysates were made from each sample. Equal amounts of total protein from the lysates were loaded onto a 10% Tris-glycine gel (Invitrogen) for SDS-PAGE analysis. […] In order to calculate the EC50 of inhibitors on phosphorylation of Bad (S112), the levels of total Bad protein were determined. […] Densitometry was used to quantitate the levels of each band on the Western blots and used to determine the EC50 of the Pim-1 inhibitors to alter the phospho-Bad protein levels.
# [5] = target: T1, Nek2 (Homo sapiens, UniProt P51955); experiment: Radiometric kinase panel selectivity assay; format: biochemical; parameters: dose or concentration left out as unconfirmed
# T1 sequence (P51955 1-445): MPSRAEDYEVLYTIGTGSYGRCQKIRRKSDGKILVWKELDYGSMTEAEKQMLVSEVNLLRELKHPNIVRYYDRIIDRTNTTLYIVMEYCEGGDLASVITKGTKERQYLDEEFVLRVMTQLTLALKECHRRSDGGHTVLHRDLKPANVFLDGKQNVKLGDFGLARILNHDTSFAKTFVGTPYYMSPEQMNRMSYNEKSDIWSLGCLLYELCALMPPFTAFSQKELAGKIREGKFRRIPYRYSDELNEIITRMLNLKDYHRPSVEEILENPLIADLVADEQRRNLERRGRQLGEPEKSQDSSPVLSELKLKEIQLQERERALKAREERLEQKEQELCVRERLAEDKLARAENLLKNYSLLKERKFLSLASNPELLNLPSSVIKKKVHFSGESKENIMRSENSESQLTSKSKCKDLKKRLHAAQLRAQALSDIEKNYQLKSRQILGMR
# [6] = target: CDK1 (Homo sapiens, UniProt P06493); experiment: Radiometric kinase panel selectivity assay; format: biochemical; parameters: dose or concentration left out as unconfirmed
# [7] = target: c-Kit (Homo sapiens, UniProt P10721); experiment: Radiometric kinase panel selectivity assay; format: biochemical; parameters: dose or concentration left out as unconfirmed
# [8] = target: Plk3 (Homo sapiens, UniProt Q9H4B4); experiment: Radiometric kinase panel selectivity assay; format: biochemical; parameters: dose or concentration left out as unconfirmed
# [9] = target: Able (Homo sapiens, UniProt P00519); experiment: Radiometric kinase panel selectivity assay; format: biochemical; parameters: dose or concentration left out as unconfirmed
# [10] = target: T2, Aurora-A (Homo sapiens, UniProt O14965); experiment: Radiometric kinase panel selectivity assay; format: biochemical; parameters: dose or concentration left out as unconfirmed
# T2 sequence (O14965 1-403): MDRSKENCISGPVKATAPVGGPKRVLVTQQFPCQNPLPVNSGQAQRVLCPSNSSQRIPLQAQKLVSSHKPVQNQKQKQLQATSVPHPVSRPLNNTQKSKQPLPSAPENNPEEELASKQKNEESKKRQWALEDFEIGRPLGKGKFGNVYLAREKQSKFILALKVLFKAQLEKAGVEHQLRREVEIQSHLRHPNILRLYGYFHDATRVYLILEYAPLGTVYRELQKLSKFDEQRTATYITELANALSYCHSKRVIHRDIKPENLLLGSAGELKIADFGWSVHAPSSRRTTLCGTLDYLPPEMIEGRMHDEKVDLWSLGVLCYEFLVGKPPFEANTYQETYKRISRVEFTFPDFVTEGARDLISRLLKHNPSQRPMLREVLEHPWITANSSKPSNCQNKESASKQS
# [11] = target: EGFR (Homo sapiens, UniProt P00533); experiment: Radiometric kinase panel selectivity assay; format: biochemical; parameters: dose or concentration left out as unconfirmed
# [12] = target: Jak2 (Homo sapiens, UniProt O60674); experiment: Radiometric kinase panel selectivity assay; format: biochemical; parameters: dose or concentration left out as unconfirmed
# [13] = target: CDK2 (Homo sapiens, UniProt P24941); experiment: Radiometric kinase panel selectivity assay; format: biochemical; parameters: dose or concentration left out as unconfirmed
# [14] = Homo sapiens, K562, Table IX (results)
# Pim-1 kinase, sequence (P11309 whole entry): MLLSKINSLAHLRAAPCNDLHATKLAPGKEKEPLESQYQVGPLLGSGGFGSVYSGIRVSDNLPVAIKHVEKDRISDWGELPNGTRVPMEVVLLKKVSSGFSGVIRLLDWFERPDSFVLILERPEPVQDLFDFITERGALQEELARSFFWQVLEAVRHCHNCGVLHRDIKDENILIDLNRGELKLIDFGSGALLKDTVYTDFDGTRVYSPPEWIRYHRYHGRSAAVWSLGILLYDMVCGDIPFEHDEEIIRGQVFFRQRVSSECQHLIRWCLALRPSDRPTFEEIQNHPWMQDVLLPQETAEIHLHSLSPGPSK
# c-Kit, sequence (P10721 26-976): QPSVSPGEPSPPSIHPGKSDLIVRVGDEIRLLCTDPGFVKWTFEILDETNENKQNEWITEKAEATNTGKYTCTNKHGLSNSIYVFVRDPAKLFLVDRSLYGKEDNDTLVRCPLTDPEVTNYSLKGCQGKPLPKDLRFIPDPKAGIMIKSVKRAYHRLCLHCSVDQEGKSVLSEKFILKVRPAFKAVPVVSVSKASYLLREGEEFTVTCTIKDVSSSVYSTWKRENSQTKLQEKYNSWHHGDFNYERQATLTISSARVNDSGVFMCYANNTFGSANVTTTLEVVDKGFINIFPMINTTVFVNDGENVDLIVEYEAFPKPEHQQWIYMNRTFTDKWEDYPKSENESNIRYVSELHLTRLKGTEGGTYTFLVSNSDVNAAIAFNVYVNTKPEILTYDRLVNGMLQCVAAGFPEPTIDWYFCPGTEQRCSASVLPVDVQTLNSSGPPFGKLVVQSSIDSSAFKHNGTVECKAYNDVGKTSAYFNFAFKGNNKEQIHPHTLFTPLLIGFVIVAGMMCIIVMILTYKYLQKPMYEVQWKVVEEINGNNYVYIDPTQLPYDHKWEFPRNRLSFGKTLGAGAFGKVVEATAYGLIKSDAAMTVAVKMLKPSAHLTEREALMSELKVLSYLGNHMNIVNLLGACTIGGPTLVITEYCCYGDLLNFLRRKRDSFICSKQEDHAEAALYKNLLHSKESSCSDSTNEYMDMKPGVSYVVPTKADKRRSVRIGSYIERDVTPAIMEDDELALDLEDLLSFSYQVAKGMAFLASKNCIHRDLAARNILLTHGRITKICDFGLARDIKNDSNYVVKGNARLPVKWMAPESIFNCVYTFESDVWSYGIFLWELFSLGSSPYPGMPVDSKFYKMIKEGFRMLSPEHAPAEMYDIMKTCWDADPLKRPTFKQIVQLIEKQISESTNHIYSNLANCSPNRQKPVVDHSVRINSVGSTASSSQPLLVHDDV
# CDK1, sequence (P06493 whole entry, species assumed): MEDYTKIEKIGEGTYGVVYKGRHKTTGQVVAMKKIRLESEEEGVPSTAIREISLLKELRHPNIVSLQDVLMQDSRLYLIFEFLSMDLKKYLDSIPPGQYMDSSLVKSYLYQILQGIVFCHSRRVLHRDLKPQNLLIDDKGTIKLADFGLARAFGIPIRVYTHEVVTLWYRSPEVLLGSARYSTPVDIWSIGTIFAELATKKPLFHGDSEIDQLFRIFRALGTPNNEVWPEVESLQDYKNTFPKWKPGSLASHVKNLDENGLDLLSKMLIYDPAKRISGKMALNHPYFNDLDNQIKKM
# CDK1, sequence (P14635 whole entry partner, species assumed): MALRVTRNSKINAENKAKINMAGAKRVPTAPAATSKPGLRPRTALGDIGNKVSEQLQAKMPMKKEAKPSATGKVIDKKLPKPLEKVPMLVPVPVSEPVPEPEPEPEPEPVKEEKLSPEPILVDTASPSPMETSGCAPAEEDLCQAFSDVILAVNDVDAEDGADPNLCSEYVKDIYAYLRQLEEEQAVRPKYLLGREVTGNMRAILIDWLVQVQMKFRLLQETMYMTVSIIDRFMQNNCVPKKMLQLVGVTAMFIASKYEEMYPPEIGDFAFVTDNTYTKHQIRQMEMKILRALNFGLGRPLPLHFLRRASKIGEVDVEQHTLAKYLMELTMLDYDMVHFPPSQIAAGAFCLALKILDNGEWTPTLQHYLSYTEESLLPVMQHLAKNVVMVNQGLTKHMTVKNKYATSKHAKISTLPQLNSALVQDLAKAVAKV
# Plk3, sequence (Q9H4B4 whole entry, species assumed): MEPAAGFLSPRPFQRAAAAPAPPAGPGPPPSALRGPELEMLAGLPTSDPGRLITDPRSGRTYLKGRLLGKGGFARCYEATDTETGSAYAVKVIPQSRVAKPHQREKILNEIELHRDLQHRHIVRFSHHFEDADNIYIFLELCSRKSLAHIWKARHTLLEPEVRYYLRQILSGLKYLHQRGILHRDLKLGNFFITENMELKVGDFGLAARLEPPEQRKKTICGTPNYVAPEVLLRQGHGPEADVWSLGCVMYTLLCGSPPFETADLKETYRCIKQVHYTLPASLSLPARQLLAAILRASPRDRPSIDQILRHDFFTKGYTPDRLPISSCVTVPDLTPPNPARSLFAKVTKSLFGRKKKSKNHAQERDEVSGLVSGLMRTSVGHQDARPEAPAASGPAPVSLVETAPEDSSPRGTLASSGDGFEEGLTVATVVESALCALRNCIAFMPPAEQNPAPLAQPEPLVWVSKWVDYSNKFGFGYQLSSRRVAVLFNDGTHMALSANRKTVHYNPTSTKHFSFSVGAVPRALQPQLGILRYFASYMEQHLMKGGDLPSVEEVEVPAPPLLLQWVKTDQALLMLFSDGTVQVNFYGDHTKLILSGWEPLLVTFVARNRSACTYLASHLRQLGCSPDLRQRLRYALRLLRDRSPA
# Able, sequence (P00519 whole entry): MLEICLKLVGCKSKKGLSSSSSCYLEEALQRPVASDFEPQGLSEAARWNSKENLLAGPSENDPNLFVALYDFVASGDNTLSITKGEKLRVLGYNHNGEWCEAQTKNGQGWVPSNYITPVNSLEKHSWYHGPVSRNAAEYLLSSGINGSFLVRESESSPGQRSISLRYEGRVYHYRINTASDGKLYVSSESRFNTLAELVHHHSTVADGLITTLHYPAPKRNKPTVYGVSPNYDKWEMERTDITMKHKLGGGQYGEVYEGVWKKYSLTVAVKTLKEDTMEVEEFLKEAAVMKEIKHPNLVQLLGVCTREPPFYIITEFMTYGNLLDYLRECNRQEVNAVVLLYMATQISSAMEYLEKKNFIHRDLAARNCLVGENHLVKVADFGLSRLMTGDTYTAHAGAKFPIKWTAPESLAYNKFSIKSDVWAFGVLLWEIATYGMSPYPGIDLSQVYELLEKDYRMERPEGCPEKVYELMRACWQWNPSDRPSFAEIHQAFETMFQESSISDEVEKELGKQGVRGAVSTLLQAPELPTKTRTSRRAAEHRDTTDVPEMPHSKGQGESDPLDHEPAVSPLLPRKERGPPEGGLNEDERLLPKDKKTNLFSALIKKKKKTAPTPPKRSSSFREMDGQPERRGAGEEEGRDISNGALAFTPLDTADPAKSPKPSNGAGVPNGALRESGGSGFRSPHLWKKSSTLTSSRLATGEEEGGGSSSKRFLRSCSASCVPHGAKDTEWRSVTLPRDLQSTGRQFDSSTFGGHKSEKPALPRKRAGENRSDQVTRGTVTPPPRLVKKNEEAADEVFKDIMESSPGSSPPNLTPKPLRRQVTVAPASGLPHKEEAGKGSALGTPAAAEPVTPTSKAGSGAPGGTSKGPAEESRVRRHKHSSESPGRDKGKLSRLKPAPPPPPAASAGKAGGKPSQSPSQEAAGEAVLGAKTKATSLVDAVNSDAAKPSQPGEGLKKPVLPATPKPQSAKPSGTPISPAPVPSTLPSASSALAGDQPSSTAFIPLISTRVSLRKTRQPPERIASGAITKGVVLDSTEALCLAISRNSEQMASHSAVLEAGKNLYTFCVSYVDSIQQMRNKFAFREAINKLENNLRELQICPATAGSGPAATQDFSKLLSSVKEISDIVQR
# Jak2, sequence (O60674 whole entry, species assumed): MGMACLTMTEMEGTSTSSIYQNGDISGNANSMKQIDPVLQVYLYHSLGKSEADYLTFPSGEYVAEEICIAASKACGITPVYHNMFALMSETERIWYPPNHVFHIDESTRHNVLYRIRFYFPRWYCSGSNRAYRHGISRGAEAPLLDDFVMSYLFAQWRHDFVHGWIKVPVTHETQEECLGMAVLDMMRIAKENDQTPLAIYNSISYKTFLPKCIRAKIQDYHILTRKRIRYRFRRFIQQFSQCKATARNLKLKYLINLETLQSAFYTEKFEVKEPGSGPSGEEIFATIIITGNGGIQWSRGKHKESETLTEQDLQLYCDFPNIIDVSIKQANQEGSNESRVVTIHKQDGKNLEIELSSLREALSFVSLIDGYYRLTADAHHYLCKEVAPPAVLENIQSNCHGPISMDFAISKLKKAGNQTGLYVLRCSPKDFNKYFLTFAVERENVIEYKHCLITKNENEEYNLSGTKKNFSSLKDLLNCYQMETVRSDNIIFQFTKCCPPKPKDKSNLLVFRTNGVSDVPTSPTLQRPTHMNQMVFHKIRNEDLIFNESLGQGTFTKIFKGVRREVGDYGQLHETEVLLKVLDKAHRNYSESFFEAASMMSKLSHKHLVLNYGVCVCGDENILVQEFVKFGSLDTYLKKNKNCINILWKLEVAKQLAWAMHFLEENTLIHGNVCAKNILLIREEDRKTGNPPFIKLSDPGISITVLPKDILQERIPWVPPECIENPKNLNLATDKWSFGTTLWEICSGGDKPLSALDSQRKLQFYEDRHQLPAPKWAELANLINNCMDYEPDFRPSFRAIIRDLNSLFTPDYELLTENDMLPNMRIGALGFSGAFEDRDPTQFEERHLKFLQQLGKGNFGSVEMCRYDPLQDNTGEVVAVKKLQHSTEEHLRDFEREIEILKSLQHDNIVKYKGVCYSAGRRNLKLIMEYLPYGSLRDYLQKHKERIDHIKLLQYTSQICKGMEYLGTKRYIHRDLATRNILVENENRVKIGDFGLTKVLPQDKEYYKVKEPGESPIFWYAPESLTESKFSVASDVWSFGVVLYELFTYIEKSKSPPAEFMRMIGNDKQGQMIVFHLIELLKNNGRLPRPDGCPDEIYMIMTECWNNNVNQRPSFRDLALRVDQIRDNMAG
"IC50 [2, 14] [µM]",IC50 [3] [µM],IC50 ([1]; values in nM),Compound,other results
6.76,21.2,–,Fc1cccc(-c2ccc3ncc(-c4cccc(F)c4)n3n2)c1 [Compound 7-9],IC50 ([1]; values in uM): 86.6 µM
20.8,70.2,–,"Fc1cccc(-c2cnc3ccc(NC4CCCC4)nn23)c1 [Compound 7-15, N-cyclopentyl-3-(3-fluorophenyl)imidazo[1,2-b]pyridazin-6-amine]",IC50 ([1]; values in uM): 5.35 µM
5.84,–,0.293 µM,"CC[C@H](N)COc1ccc2ncc(-c3cccc(OC(F)(F)F)c3)n2n1 [Compound 7-19, (S)-1-(3-(3-(trifluoromethoxy)phenyl)imidazo[1,2-b]pyridazin-6-yloxy)butan-2-amine]",EC50 [4]: 0.635 µM
9.14,9.26,0.761 µM,"FC(F)(F)Oc1cccc(-c2cnc3ccc(NCCN4CCCC4)nn23)c1 [Compound 7-30, N-(2-(pyrrolidin-1-yl)ethyl)-3-(3-(trifluoromethoxy)phenyl)imidazol[1,2-b]pyridazin-6-amine]",–
25.3,29,0.095 µM,"CC[C@@H](CO)Nc1ccc2ncc(-c3cccc(OC(F)(F)F)c3)n2n1 [Compound 7-32, (S)-2-(3-(3-(trifluoromethoxy)phenyl)imidazo[1,2-b]pyridazin-6-ylamino)butan-1-ol]",IC50 ([1]; values in uM): 1.55 µM; IC50 ([2]; Table IX (results)): 20 µM
5.99,14.4,0.405 µM and 0.282 µM,"CN1CCC(COc2ccc3ncc(-c4cccc(OC(F)(F)F)c4)n3n2)CC1 [Compound 7-33, 6-((1-methylpiperidin-4-yl)methoxy)-3-(3-(trifluoromethoxy)phenyl)imidazo[1,2-b]pyridazine]",–
1.73,7.21,0.272 µM,"Cc1cc2ncc(-c3cccc(OC(F)(F)F)c3)n2nc1OCC1CCN(C)CC1 [Compound 7-34, 7-methyl-6-((1-methylpiperidin-4-yl)methoxy)-3-(3(trifluoromethoxy)phenyl) imidazo[1,2-b]pyridazine]",–
6.91,33.3,0.073 µM,"O=C(C1CC1)N1CCC(CNc2ccc3ncc(-c4cccc(OC(F)(F)F)c4)n3n2)CC1 [Compound 7-36, Cyclopropyl(4-((3-(3-(trifluoromethoxy)phenyl)imidazo[1,2-b]pyridazin-6-ylamino)methyl)piperidin-1-yl)methanone]",–
3.89,8.95,0.013 µM,"Cc1cc2ncc(-c3cccc(OC(F)(F)F)c3)n2nc1NCC1CCN(C)CC1 [Compound 7-37, 7-Methyl-N-((1-methylpiperidin-4-yl)methyl)-3-(3-(trifluoromethoxy)phenyl)-imidazo[1,2-b]pyridazin-6-amine]",–
11.3,57.4,0.31 µM,"CCN1CCC(CNc2ccc3ncc(-c4cc(OC(F)(F)F)ccc4O)n3n2)CC1 [Compound 7-47, N-((1-ethylpiperidin-4-yl)methyl)-3-(2-hydroxy-5-(trifluoromethoxy)phenyl)-imidazo[1,2-b]pyridazin-6-amine]",–

Compound,"IC50 [2, 14] [µM]",IC50 [3] [µM],IC50 ([1]; values in nM),other results
CN1CCC(CNc2ccc3ncc(-c4cccc(OC(F)(F)F)c4)n3n2)CC1 [Compound 7-29],–,4.83,–,"activity against Nek2 [5]: no significant activity; activity against CDK1 [6]: no significant activity; EC50 [4]: 0.0079 µM; activity against c-Kit [7]: no significant activity; activity against Plk3 [8]: no significant activity; activity against Able [9]: no significant activity; activity against Aurora-A [10]: no significant activity; activity against EGFR [11]: no significant activity; activity against Jak2 [12]: no significant activity; IC50 ([2]; Homo sapiens, Table IX (results)): 2.29 µM; activity against CDK2 [13]: no significant activity"

# Source: patent US20120058997A1, “IMIDAZO[1,2-B]PYRIDAZINE AND PYRAZOLO[1,5-A]PYRIMIDINE DERIVATIVES AND THEIR USE AS PROTEIN KINASE INHIBITORS” (SuperGen, Inc., priority 2006, published 2012)
